Results published in patent US7772216B2, “Protein kinase and phosphatase inhibitors and methods for designing them” (The Research Foundation of State University of New York, priority 2001, dated 2010).
Where two headings read alike, the source gives them in different places.

Columns and labels:
[1] = SCID, mouse, in vivo, ip
Procedure: These compounds were administered to SCID mice by intraperitoneal administration in tween80:EtOH.

PTP-1B = molecular target: T1, PTP-1B (Homo sapiens, UniProt P18031); experiment: PTP-1B inhibition; assay type: biochemical; conditions: % inhibition at 10 micromolar compound
T1 sequence (P18031 1-435): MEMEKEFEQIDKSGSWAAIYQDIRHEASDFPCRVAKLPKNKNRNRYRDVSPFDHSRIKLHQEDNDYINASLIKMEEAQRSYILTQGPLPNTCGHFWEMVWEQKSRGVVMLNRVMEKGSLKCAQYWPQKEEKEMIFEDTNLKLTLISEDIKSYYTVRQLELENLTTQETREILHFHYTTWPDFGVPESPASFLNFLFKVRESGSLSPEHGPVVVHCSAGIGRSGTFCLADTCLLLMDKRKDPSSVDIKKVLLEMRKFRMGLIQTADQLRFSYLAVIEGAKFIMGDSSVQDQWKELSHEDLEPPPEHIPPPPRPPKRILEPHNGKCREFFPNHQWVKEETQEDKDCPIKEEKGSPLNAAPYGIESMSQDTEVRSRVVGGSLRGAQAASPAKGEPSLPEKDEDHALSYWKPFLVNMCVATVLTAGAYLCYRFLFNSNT
Excerpt: (§1) Blanks for a particular enzyme indicate that inhibition was not found.

EGFRTK = EGFRTK (Homo sapiens, UniProt P00533); experiment: EGFRTK inhibition; assay type: biochemical; conditions: % inhibition at 10 micromolar compound
Chain of EGFRTK (P00533 25-1210): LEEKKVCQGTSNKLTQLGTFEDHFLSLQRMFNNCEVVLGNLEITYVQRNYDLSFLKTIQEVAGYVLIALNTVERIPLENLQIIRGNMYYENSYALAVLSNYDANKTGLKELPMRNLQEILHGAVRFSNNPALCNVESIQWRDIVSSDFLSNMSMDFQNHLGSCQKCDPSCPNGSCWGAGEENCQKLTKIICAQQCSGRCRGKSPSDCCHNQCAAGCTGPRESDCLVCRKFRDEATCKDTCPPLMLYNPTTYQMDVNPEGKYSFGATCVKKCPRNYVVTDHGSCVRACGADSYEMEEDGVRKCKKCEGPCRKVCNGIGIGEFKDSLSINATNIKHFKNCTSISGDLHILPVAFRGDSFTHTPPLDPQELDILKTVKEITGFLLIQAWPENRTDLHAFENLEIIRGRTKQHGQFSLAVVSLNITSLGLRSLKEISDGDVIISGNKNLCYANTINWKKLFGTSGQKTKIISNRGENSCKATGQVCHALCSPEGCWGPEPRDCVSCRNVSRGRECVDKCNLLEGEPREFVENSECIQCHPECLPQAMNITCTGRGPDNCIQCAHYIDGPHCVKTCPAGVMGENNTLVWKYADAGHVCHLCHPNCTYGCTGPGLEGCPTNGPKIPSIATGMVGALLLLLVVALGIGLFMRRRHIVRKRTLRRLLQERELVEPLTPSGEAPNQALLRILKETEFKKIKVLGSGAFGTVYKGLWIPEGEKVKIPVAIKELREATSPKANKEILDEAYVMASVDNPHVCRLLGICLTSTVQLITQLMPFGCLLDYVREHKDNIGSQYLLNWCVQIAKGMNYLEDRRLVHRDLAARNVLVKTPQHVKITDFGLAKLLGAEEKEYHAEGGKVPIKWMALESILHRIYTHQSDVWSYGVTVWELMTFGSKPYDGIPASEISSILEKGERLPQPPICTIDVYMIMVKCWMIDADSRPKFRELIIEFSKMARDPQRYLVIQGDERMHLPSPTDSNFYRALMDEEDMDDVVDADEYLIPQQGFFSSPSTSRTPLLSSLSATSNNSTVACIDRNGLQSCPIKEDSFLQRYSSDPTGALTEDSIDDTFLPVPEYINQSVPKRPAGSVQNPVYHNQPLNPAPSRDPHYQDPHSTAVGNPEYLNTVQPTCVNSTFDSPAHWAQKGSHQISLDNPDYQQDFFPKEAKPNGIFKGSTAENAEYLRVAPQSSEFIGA
Excerpt: as §1

p56 lck [2] = molecular target: T2, p56 lck (Homo sapiens, UniProt P06239); experiment: p56 lck inhibition; assay type: biochemical; conditions: % inhibition at 10 micromolar compound
T2 sequence (P06239 whole entry, species assumed): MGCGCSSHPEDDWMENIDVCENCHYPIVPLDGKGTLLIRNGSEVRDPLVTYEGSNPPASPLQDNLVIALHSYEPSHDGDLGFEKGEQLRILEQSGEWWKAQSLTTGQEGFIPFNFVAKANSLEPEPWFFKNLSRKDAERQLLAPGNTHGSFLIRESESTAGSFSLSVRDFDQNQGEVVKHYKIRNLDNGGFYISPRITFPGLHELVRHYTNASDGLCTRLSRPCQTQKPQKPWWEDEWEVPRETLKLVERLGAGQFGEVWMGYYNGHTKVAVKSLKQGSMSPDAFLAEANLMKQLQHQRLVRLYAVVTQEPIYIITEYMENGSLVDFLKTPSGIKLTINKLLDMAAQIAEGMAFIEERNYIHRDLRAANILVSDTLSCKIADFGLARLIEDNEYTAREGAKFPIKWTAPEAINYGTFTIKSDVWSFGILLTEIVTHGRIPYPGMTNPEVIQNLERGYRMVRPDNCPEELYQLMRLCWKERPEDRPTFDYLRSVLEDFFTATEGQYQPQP
Excerpt: as §1

LA25 cells = experiment: LA25 (ts pp60^v-src transformed NRK) cell growth; assay type: cell-based, rat
Procedure: (§2) Active Src inhibitors can be studied in a set of side-by-side cell-based assays using normal rat kidney (NRK) cells and a temperature-sensitive pp60^v-Src transformant of this cell line (LA25). The LA25 transformant engages in anchorage- and serum-independent growth at the “permissive” temperature of 33° C. due to activation of pp60^v-src but not at the “non-permissive” temperature of 40° C. at which pp60^v-src is not activated (Li et al., 1996). The use of this pair of closely related cell lines for testing the Src inhibitors at both the permissive and non-permissive temperatures allows one to determine if a given Src inhibitor is blocking cell growth due to specific blockade of the Src signaling pathway, by a different mechanism or by a general cytotoxic effect.
(§3) As shown in this graph the growth of the LA25 cells at the permissive temperature of 33° C. is inhibited by ca. 50% at a 25 μM concentration of 43-meta relative to the LA25 cell growth at the non-permissive 40° C. as a control. […] Since the 43-meta solutions were prepared with a low concentration of DMSO for solubilization, a DMSO control was also run at the same concentration.

NRK cells = experiment: Normal rat kidney (NRK) cell growth; assay type: cell-based
Procedure: as §2, §3

PC-3 = experiment: NIH 60-tumor cell panel, PC-3; assay type: cell-based; conditions: Homo sapiens, NIH prostate cancer cell line, read-out: growth inhibition IC50, PC-3
Excerpt: The initial non-peptide Src inhibitors have also shown very encouraging results in four different series of cell culture assays. 1) In the NIH 60-tumor cell panel assay, broad activity (as one would expect for a Src inhibitor) was seen against the tumor cell lines, including the prostate lines. […] 3) The Src inhibitors were compared to the cancer drugs etoposide, taxol, doxorubicin and cisplatin in ovarian tumors from three different patients and an abdominal carcinoma from another patient. […] 5) Two of the Src inhibitors were also tested for inhibition of ts v-Src stimulated LA25 cell growth. […] 6) Two of the Src inhibitors were also tested for inhibition of normal rat kidney cell growth. The results are shown in FIG. 16D and illustrate that the inhibitors are cytoprotective for normal cells.

pp60^c-src [3] = molecular target: T3, pp60^c-src (Homo sapiens, UniProt P12931); experiment: Cellular Mimetic Src assay (RR-SRC phosphorylation)
Target sequence in this assay (P12931 whole entry): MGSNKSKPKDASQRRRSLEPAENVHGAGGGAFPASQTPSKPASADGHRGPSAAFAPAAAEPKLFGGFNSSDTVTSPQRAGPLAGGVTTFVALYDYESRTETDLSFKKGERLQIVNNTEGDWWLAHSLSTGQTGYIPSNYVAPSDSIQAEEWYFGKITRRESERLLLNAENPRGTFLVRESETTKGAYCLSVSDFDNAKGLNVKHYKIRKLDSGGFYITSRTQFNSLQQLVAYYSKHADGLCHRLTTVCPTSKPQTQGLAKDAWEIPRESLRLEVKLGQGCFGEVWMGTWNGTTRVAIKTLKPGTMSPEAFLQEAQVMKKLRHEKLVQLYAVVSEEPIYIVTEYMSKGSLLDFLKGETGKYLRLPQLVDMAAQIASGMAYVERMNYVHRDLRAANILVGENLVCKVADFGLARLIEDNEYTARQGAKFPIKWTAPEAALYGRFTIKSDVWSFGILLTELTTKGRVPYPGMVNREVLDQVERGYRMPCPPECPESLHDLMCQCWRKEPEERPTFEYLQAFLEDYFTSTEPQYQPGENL

p56 lck [4] = molecular target: T2, p56 lck; conditions: analyzed with the tyrosine kinase p56^lck; cited from earlier work
pp60^c-src [5] = molecular target: T3, pp60^c-src; conditions: literature value, cited from earlier work
Target sequence in this assay (P12931 whole entry, species assumed): as the sequence (P12931 whole entry) above

[6] = read-out: % Inhibition of 2 mM RR-src at Inhibitor Concentration (100 μM)

Q: Which “toxicity in mice (weight loss)” value [1] does the source give for `O=C(NCc1cccc(O)c1)c1cc2cc(F)ccc2[nH]1` [Compound 1a] here?
A: less toxic in mice than compound 2k from Example 4

Q: What does the source list for `COc1ccc(NC(=O)c2cc3cc(F)ccc3[nH]2)cc1CO` [Compound 1cccc]?
A: PTP-1B @ 10 μm (PTP-1B): 20%; EGFRTK @ 10 μm (EGFRTK): 19%

Q: Which “PTP-1B @ 10 μm” value (PTP-1B) does the source give for `O=C(NCc1cc(O)cc(OCc2ccccc2)c1)c1cc2cc(F)ccc2[nH]1` [Compound 1dddd] here?
A: 16%

Q: Which “PTP-1B @ 10 μm” value (PTP-1B) does the source give for `COc1cc(CNC(=O)c2cc3cc(F)ccc3[nH]2)cc(OC)c1` [Compound 1hhhh] here?
A: 17%

Q: Which “PTP-1B @ 10 μm” value (PTP-1B) does the source give for `O=C(NCc1ccc(OCc2ccccc2)c(O)c1)c1cc2cc(F)ccc2[nH]1` [Compound 1jjjj] here?
A: 15%

Q: With `O=C(Nc1ccccc1O)c1cc2cc(F)ccc2[nH]1` [Compound 1n] as the compound, how does the “p56 LcK @ 10 μm” value (p56 lck [2]) read?
A: 12%

Q: For `O=C(NCc1ccc(CO)cc1)c1cc2cc(F)ccc2[nH]1` [Compound 1oooo], which “p56 LcK @ 10 μm” value (p56 lck [2]) is on record?
A: 10%

Q: And the “EGFRTK @ 10 μm” value (EGFRTK)?
A: 33%

Q: With `O=C(Nc1cc(O)cc(O)c1)c1cc2cc(F)ccc2[nH]1` [Compound 1r] as the compound, how does the “p56 LcK @ 10 μm” value (p56 lck [2]) read?
A: 11%

Q: With `COc1cc(OC)c(CNC(=O)c2cc3cc(F)ccc3[nH]2)c(OC)c1` [Compound 1rr] as the compound, how does the “p56 LcK @ 10 μm” value (p56 lck [2]) read?
A: 12%

Q: Which “PTP-1B @ 10 μm” value (PTP-1B) does the source give for `O=C(NCc1ccc(Cl)cc1Cl)c1cc2cc(F)ccc2[nH]1` [Compound 1ss] here?
A: 12%

Q: For `O=C(NCc1ccc(F)cc1)c1cc2cc(F)ccc2[nH]1` [Compound 1uuu], which “PTP-1B @ 10 μm” value (PTP-1B) is on record?
A: 13%

Q: With `O=C(Nc1ccccc1CO)c1cc2cc(F)ccc2[nH]1` [Compound 1xxx] as the compound, how does the “PTP-1B @ 10 μm” value (PTP-1B) read?
A: 12%

Q: Which “PTP-1B @ 10 μm” value (PTP-1B) does the source give for `O=C(NCc1ccccc1Cl)c1cc2cc(F)ccc2[nH]1` [Compound 1yy] here?
A: 10%

Q: With `O=C(NCc1cccc(F)c1)c1cc2cc(F)ccc2[nH]1` [Compound 1z] as the compound, how does the melting point read?
A: 239 to 241 °C

Q: What about the “EGFRTK @ 10 μm” value (EGFRTK) of the same compound?
A: 26%

Q: With `O=C(NCc1ccc(Cl)cc1)c1[nH]c2ccc(F)cc2c1-c1ccccc1` [Compound 2gg] as the compound, how does the “PTP-1B @ 10 μm” value (PTP-1B) read?
A: 12%

Q: With `O=C(Nc1cccc(O)c1)c1cc2ccc(O)cc2cc1O` [Compound 43-meta] as the compound, how does the “inhibition of v-Src induced LA25 cell growth” value (LA25 cells) read?
A: specifically blocked the v-Src induced cell growth

Q: What about the inhibition at 25 µM (LA25 cells; Rattus norvegicus, NRK, 25 μM, permissive 33° C. relative to non-permissive 40° C.) of the same compound?
A: ~50%

Q: What about the IC50 (LA25 cells; Rattus norvegicus, NRK, read-out: IC50 for blocking pp60^v-src stimulated cell proliferation) of the same compound?
A: ~25 µM

Q: What about the “inhibition of normal rat kidney (parent non-transformed) cell growth” value (NRK cells) of the same compound?
A: without inhibiting the normal growth of the parent non-transformed cells

Q: What about the “cell toxicity (basal growth of NRK and LA25 cells)” value (NRK cells; concentration increased up to 400 μM) of the same compound?
A: lack of cell toxicity

Q: And the IC50 (PC-3)?
A: 19 µM

Q: What about the IC50 (pp60^c-src [3]) of the same compound?
A: 18 µM

Q: And the Ki (pp60^c-src [3]; K1, Table V)?
A: 10 µM

Q: What about the inhibition at 100 µM (pp60^c-src [3]; [6]) of the same compound?
A: 89%

Q: With `O=C(Nc1cccc(O)c1)c1cc2cccc(O)c2cc1O` [Compound 45] as the compound, how does the “inhibition of v-Src induced LA25 cell growth” value (LA25 cells) read?
A: specifically blocked the v-Src induced cell growth

Q: And the “inhibition of normal rat kidney (parent non-transformed) cell growth” value (NRK cells)?
A: without inhibiting the normal growth of the parent non-transformed cells

Q: What about the IC50 (PC-3) of the same compound?
A: 15 µM

Q: And the IC50 (pp60^c-src [3])?
A: 170 µM

Q: And the “mode of inhibition with respect to ATP” value (pp60^c-src [3]; increasing ATP concentration up to 1 mM)?
A: 45 NON-ATP

Q: What about the inhibition at 100 µM (pp60^c-src [3]; [6]) of the same compound?
A: 51%

Q: Which results are given for `Cc1cc(O)c2c(c1)C(=O)c1cc(O)cc(O)c1C2=O` [Emodin, reference compound]?
A: mode of inhibition with respect to ATP (p56 lck [4]): ATP-competitive; inhibition at 100 µM (pp60^c-src [3]; read-out: % Inhibition at 100 μM (std. dev.)): 22%

Q: For `CCOc1cc(/C=C(\C#N)C(N)=O)cc(CSc2ccccc2)c1O` [ST-638, reference compound], which IC50 (pp60^c-src [5]; Table IX, read-out: IC50 (μM), Lit) is on record?
A: 18 µM

Q: And the “% Inhibition at 100 μM (std. dev.)” value (pp60^c-src [3]; Table IX, hydroxynaphthalene derivatives and published inhibitors)?
A: 37 (+/−5) %

Q: With `CCOc1cc(/C=C(\C#N)C(N)=O)cc(CSc2ccccc2)c1O` [drawing 65, ST 638, reference compound] as the compound, how does the IC50 (pp60^c-src [5]; Table V, read-out: Lit. IC50) read?
A: 18 µM

Q: And the inhibition at 100 µM (pp60^c-src [3]; [6])?
A: 37%
